# Entries after “also recorded” stand apart in the source; their conditions may differ.
# Assays:
# [1] = system: Phospho-S6; experiment: p-S6 western blot in Mut6 cells; type: cell-based, mouse
# Method: (§1) Mut6 tumor cells and MEFs were treated by DMSO or 1 μM 12M11 for the indicated times. Cell lysate was prepared by RIPA buffer with phosphatase inhibitor (Thermo) and protease inhibitor (Roche). Antibodies are purchased from Santa Cruz (ATF4), Cell Signaling (pS6, S6, AMPK, and pAMPK), and Millipore (Gapdh).
# [2] = system: MEF; experiment: Cytotox testing (CellTiter-Glo) in MEF; type: cell-based, mouse
# Method: Mut6 tumor cells were cultured in DMEM/F12 media supplemented by EGF (10 ng/mL), basic FGF (10 ng/mL), heparin (4 ug/mL), glucose (total 21 mM), NaHCO3 (113 μg/mL), Hepes (119 μg/mL), glutamine (2 mM), sodium pyruvate (1 mM), N2 supplement (ThermoFisher Gibco 17502-048, 100×, at 100-fold dilution), B27 supplement (ThermoFisher Gibco 12587-010, 50×, at 100-fold dilution), and penicillin/streptomycin (ThermoFisher, final 1%). Cells were maintained in Ultra-low attachment plate (Corning) as sphere-forming cells. For ATP assays and protein/RNA isolation, cells were plated into 96-well plates or 6-well plated that were coated with poly-lysine (Sigma P6407, 10 μg/mL in PBS, 4 hr at 37° C.) and laminin (ThermoFisher 23017015, ˜5 mg/L in PBS, overnight at 37° C.). MEFs and Astrocytes were cultured in DMEM supplemented with 10% FBS and 1% Penicillin/Streptomycin.
# 2,000 cells were plated into each well of 96-well plates. About 3 hours later, cells were treated by 12M11, at 800-fold dilution (4 mM stock was diluted into 5 μM final concentration). Cells were further incubated for 4 days. CellTiter-Glo assay (Promega) was performed according to manufacturer's instructions, by adding 20 μL of reagent into each well. Luminescence signal was detected by the PolarStar plate reader (BMG Labtech). […] EC505 were calculated by GraphPad Prism6 software.
# [3] = In vivo plasma PK, 10 mg/kg IP; set-up: species or system mice; conditions: female, CD-1, mouse
# Method: 22E. 21 female CD-1 mice (6 wks) were administered 10 mg/kg L129 IP, 0.2 ml/mouse formulated as 5% DMSO, 10% Cremophor EL, and 85% D5W. Plasma was processed from whole blood by centrifugation of the ACD treated blood for 10′ at 10,000 rpm in a standard centrifuge. Brains were weighed and snap frozen in liquid nitrogen. Brain homogenates were prepared by mincing the brain tissue and homogenizing in a 3-fold volume of PBS (total volume of homogenate in mL=4× weight in g.) 100 microliters plasma or brain homogenate was mixed with 200 microliters of acetonitrile containing formic acid and an internal standard (final concentration of formic acid=0.1%, IS=25 ng/mL). The samples were vortexed 15 sec, incubated at room temp for 10′ and spun 2×13,200 rpm in a standard microcentrifuge. The supernatant was then analyzed by LC/MS/MS. Buffer A: Water+0.1% formic acid; Buffer B: MeOH+0.1% formic acid; flow rate 1.5 ml/min; column Agilent C18 XDB column, 5 micron packing 50×4.6 mm size; 0-1.5 min 3% B, 1.5-2.5 min gradient to 100% B; 2.5-3.5 min 100% B, 3.5-3.6 min gradient to 3% B; 3.6-4.5 min 3% B; IS N-benzylbenzamide (transition 212.1 to 91.1); Compound transition 474.2 to 336.3. These methods were used data obtained in the FIGS. 22B and 22E.
# [4] = system: MEF; experiment: OCR and ECAR measurement (Seahorse) in MEF; type: cell-based, mouse
# Method: (§2) Oxygen consumption rate (OCR) and extracellular acidification rate (ECAR) were measured by Seahorse Bioscience instrument (XF24) with 80-90% confluent cells, according to the manufacturer's protocol. Briefly, cells were equilibrated for 1 hr at 37° C. incubator lacking CO2. Oxygen concentration and pH in media were measured during sequential treatment with 12M11, Oligomycin (1 μM), FCCP (1 μM), and Rotenone (200 nM). A minimum of three wells were utilized per condition to calculate OCR and ECAR.
# [5] = Hepatocyte half-life; type: in vitro ADME; conditions: hepatocytes; in vitro; read-out: hepatocyte T1/2
# [6] = system: Mut6; experiment: OCR and ECAR measurement (Seahorse) in Mut6; type: cell-based, mouse
# Method: as §2
# [7] = system: ATF4; experiment: ATF4 western blot in Mut6 cells; type: cell-based, mouse
# Method: as §1
# [8] = system: mitochondrial membrane potential; experiment: TMRE mitochondrial membrane potential staining in Mut6 cells; type: cell-based, mouse; conditions: within 30 min
# Method: TMRE mitochondrial membrane potential assay kit was purchased from Abcam (113852) and the assay was performed according to the manufacturer's protocol. Briefly, cells were pre-incubated with 1 μM 12M11 (10 min or 18 hrs) or 100 nM FCCP (10 min) and incubated for additional 20 min with 200 nM TMRE before pictures were taken.
# [9] = system: DAOY (medulloblastoma) cells; experiment: CellTiter-Glo cell viability in DAOY cells; type: cell-based
# Method: (§3) The activity of compound 12M11 was tested against a variety of cancer cell lines (see FIG. 2A), including those are routinely used in the literature such as HeLa, DAOY, MCF7, 435 and HCC38 cells. […] Just as for MEF cells, without wishing to be bound by any theory, it is believed that the resistance of DAOY cells to the OxyPhos inhibitor 12M11 can be attributed to their higher ATP levels per cell (FIG. 13B) combined with lower intrinsic OxyPhos activity as assessed by TMRE staining (FIG. 13C).
# [10] = system: MEF; experiment: Change in ATP levels in MEF cells; type: cell-based, mouse; conditions: 2-6 hr
# Method: (§4) Mut6 tumor cells or MEFs were plated into 96-well plates. One day later, Oligomyin (2 μM), Rotenone (200 nM), or 12M11 (1 μM) were added into each well and then ATP levels were measured by Cell-Titer Glo (Promega) after 2 hr, 4 hr, or 6 hr incubation. Each data is mean of six replicates with ± standard deviation.
# [11] = system: Mut6; experiment: Change in ATP levels in Mut6 cells; type: cell-based, mouse; conditions: Mut6, 2-6 hr
# Method: as §4
# [12] = system: cancer cell lines (HeLa, DAOY, MCF7, 435 and HCC38 cells); experiment: CellTiter-Glo cell viability in cancer cell lines; type: cell-based, human; conditions: significant proportion of cell lines tested, excluding DAOY and MEF
# Method: as §3
compound,measurement,setting,value
CCc1n(CC(=O)O[C@@H]2C[C@H](C)CC[C@H]2C(C)C)c2ccccc2[n+]1C.[Cl-] [Compound 12M11],Phospho-S6 protein level,[1],down regulation
same,activity against MEF,[2],no to minimal effect; also recorded: no activity
same,Cmax,[3],2.7 ng/mL
same,extracellular acidification,[4],do not increase acidification significantly
same,oxygen consumption rate (OCR),[4],decrease
same,half-life,[5],4.28 h
same,extracellular acidification rate (ECAR),[6],dramatically increases
same,oxygen consumption rate (OCR),[6],decrease
same,ATF4 protein level,[7],activation
same,oxidative phosphorylation / mitochondrial membrane potential by TMRE staining,[8],impairs oxidative phosphorylation
same,sensitivity of DAOY cells,[9],resistance
same,ATP levels (% change from basal),[10],increase
same,ATP levels (% change from basal),[11],decrease significantly
same,EC50,[12],mid nanomolar to low micromolar range
